Assay results as given in the supplement of paper PMC5908809.

How the values were obtained:
Experiment in all cases: relative IC50 (inflection point of fitted viability curve, relative to fitted max inhibition); higher = less sensitive
Details in all cases: 72 h
[1] = tested on: DERL-7 (IL-2 2.5 ng/mL)
Protocol: (§1)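 Drug sensitivity and resistance testing: 5 concentrations over a 10,000-fold range, 72 h at 37 °C, viability by CellTiter-Glo normalised to DMSO and benzethonium chloride controls. IC50 is the inflection point of a logistic fit (min fixed at 0, max fitted), so it is relative to the fitted maximal inhibition. Kept only where fitted max inhibition is at least 50%.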

[2] = tested on: IMC-1 (IL-2 20 ng/mL)
Protocol: as §1

[3] = tested on: KAI3 (IL-2 2.5 ng/mL)
Protocol: as §1

[4] = tested on: KHYG-1 (IL-2 2.5 ng/mL)
Protocol: as §1

[5] = tested on: NK-92 (IL-2 2.5 ng/mL)
Protocol: as §1

[6] = tested on: NK-YS (IL-2 2.5 ng/mL)
Protocol: as §1

[7] = tested on: NKL (IL-2 2.5 ng/mL)
Protocol: as §1

[8] = tested on: SNK-6 (IL-2 2.5 ng/mL)
Protocol: as §1

[9] = tested on: YT (IL-2 2.5 ng/mL)
Protocol: as §1

[10] = tested on: normal primary NK cells, pool 1 (3 donors) (IL-2 2.5 ng/mL)
Protocol: as §1

[11] = tested on: normal primary NK cells, pool 1 (3 donors), resting (IL-2 0 ng/mL)
Protocol: as §1

[12] = tested on: normal primary NK cells, pool 2 (3 donors) (IL-2 2.5 ng/mL)
Protocol: as §1

[13] = tested on: normal primary NK cells, pool 3 (3 donors) (IL-2 2.5 ng/mL)
Protocol: as §1

SMILES | relative IC50 [1] | relative IC50 [2] | relative IC50 [3] | relative IC50 [4] | relative IC50 [5] | relative IC50 [6] | relative IC50 [7] | relative IC50 [8] | relative IC50 [9] | relative IC50 [10] | relative IC50 [11] | relative IC50 [12] | relative IC50 [13]
CO[C@@H]1[C@H](N(C)C(=O)c2ccccc2)C[C@H]2O[C@]1(C)n1c3ccccc3c3c4c(c5c6ccccc6n2c5c31)C(=O)NC4 [Midostaurin] | 217 nM | 486 nM | 175 nM | 186 nM | 330 nM | 338 nM | 127 nM | 115 nM | 431 nM | 188 nM | 1050 nM | 438 nM | 594 nM
S=C(NCc1ccc2c(c1)OCO2)N1CCN(c2ncnc3c2oc2ccccc23)CC1 [Amuvatinib] | 521 nM | – | 1480 nM | 1330 nM | 911 nM | 2060 nM | 815 nM | 388 nM | – | 1570 nM | 1380 nM | 1930 nM | 1760 nM
COc1cc(N2CCN(C)CC2)ccc1Nc1nccc(-c2cn(C)c3cnccc23)n1 [AZ191] | 1650 nM | 2910 nM | 2510 nM | 1890 nM | 3940 nM | 2440 nM | 2340 nM | 3570 nM | – | 3430 nM | 4320 nM | 3700 nM | 3870 nM
CC(C)C[C@H](NC(=O)[C@H](CCc1ccccc1)NC(=O)CN1CCOCC1)C(=O)N[C@@H](Cc1ccccc1)C(=O)N[C@@H](CC(C)C)C(=O)[C@@]1(C)CO1 [Carfilzomib] | 0.92 nM | 3.26 nM | 1.43 nM | 2.95 nM | 1.96 nM | 2.91 nM | 3.52 nM | 2.8 nM | 3.07 nM | 1.61 nM | 1.41 nM | 1.77 nM | 2.58 nM
C[C@@H](Oc1ccc2[nH]nc(/C=C/c3cnn(CCO)c3)c2c1)c1c(Cl)cncc1Cl | 91.8 nM | 165 nM | 20.9 nM | 16.1 nM | 50.1 nM | 59.2 nM | 11.9 nM | 15.7 nM | 224 nM | 47.9 nM | – | 15.6 nM | 30.1 nM
NC(=O)Nc1sc(-c2ccc(F)cc2)cc1C(N)=O [TPCA-1] | 367 nM | 7190 nM | 218 nM | 381 nM | 860 nM | 1440 nM | 274 nM | 514 nM | 912 nM | 997 nM | 2310 nM | 658 nM | 1020 nM
Cc1cc(Nc2cc(N3CCN(C)CC3)nc(/C=C/c3ccccc3)n2)n[nH]1 [ENMD-2076] | 497 nM | 573 nM | 256 nM | 482 nM | 901 nM | 293 nM | 503 nM | 541 nM | 1360 nM | 1500 nM | 1710 nM | 1290 nM | 1970 nM
CNNCc1ccc(C(=O)NC(C)C)cc1 [Procarbazine] | > 10000 nM | > 10000 nM | > 10000 nM | > 10000 nM | > 10000 nM | > 10000 nM | > 10000 nM | – | > 10000 nM | > 10000 nM | – | > 10000 nM | > 10000 nM
CNC(=O)c1nn(C)c2c1C(C)(C)Cc1cnc(Nc3ccc(N4CCN(C)CC4)cc3)nc1-2 [Milciclib] | 634 nM | 3420 nM | 1230 nM | 278 nM | 1190 nM | 1170 nM | 1220 nM | 1780 nM | 1680 nM | 1100 nM | 449 nM | 775 nM | 1470 nM
O=[N+]([O-])c1ccc2c(c1)S(=O)(=O)C=C2 [Stattic] | 1220 nM | 18900 nM | 1100 nM | 1700 nM | 1800 nM | 6720 nM | 4710 nM | 2020 nM | 1770 nM | 1110 nM | 1170 nM | 1660 nM | 1850 nM
O=C(NC1CCNCC1)c1n[nH]cc1NC(=O)c1c(Cl)cccc1Cl [AT7519] | 356 nM | 317 nM | 355 nM | 753 nM | 1270 nM | 236 nM | 204 nM | 307 nM | 424 nM | 265 nM | 400 nM | 319 nM | 381 nM
Cc1cc(OCc2nnc(SC3CCCC3)n2-c2cccnc2)ccc1-c1ccc(S(C)(=O)=O)cc1 [NMS-873] | 1410 nM | 40.2 nM | 1270 nM | 250 nM | 506 nM | 114 nM | 488 nM | 1440 nM | 48.7 nM | 909 nM | 455 nM | 767 nM | 1680 nM
CN[C@@H]1C[C@H]2O[C@@](C)([C@@H]1OC)n1c3ccccc3c3c4c(c5c6ccccc6n2c5c31)C(=O)N[C@H]4O [UCN-01] | 27 nM | 375 nM | 21.3 nM | 24.9 nM | 39.3 nM | 51.1 nM | 53.3 nM | 15.3 nM | 184 nM | 97.1 nM | 204 nM | 75.8 nM | 126 nM
CC(C)CC(=O)Nc1n[nH]c2c1CN(C(=O)C1CCN(C)CC1)C2(C)C | 666 nM | 182 nM | 1390 nM | 380 nM | 871 nM | 463 nM | 1510 nM | 1650 nM | 1220 nM | 3000 nM | 4760 nM | 1890 nM | 2210 nM
CN(C)C[C@@H]1CCn2cc(c3ccccc32)C2=C(C(=O)NC2=O)c2cn(c3ccccc23)CCO1 [Ruboxistaurin] | 1140 nM | 4180 nM | 1430 nM | 1290 nM | 2950 nM | 1540 nM | 1240 nM | 2810 nM | 2730 nM | 1430 nM | 1070 nM | 2110 nM | 2000 nM
CC(=O)[C@]1(O)Cc2c(O)c3c(c(O)c2[C@@H](O[C@H]2C[C@H](N)[C@H](O)[C@H](C)O2)C1)C(=O)c1ccccc1C3=O [Idarubicin] | 6.26 nM | 7.71 nM | 3.54 nM | 6.52 nM | 5.78 nM | 6.58 nM | 1.74 nM | 5.03 nM | 34 nM | 17.3 nM | 3.38 nM | 9.51 nM | 10.9 nM
Cn1cc(CNCC2CCN(c3ncc(C(=O)NO)cn3)CC2)c2ccccc21 [Quisinostat] | 10.6 nM | 35.8 nM | 14.7 nM | 21.4 nM | 39.5 nM | 20.3 nM | 11 nM | 90.1 nM | 58.3 nM | 7.78 nM | 2.39 nM | 5.99 nM | 13.1 nM
